Data reported in patent US20110015226A1, “Treatment of Energy Utilization Disease” (SUMMIT CORPORATION PLC, priority 2008, published 2011).

Legend:
[1] = system: zebrafish larvae; assay: Acute Toxicity assay in zebrafish larvae; assay type: in vivo; settings: 1 mM, 5 mM, 25 mM, 50 mM, 100 mM, 200 mM, 500 mM aqueous dose, 72-96 hpf
Procedure: The compound of formula (G2) was screened for toxicity liabilities using a validated Acute Toxicity assay. Fertilized eggs were obtained from breeding pairs of adult Tuebingen (Tu) zebrafish and arrayed at the 2-4 cell stage of development into 24-well culture plates containing fresh 0.3× Danieau's solution. Plates were incubated at 28.5° C. in a humidity controlled environment prior to assessment. Stock concentrations of Compound were produced by serial dilution in 100% DMSO (final concentration exposed to larvae, 0.5%). Screening was performed at seven doses (1, 5, 25, 50, 100, 200 and 500 mM) alongside VASTox internal controls and vehicle. Dosing of Compound took place at 72 h post fertilisation (hpf; at which point embryogenesis is complete) with visual assessment of lethality and gross morphology at 96 hpf (24 h incubation). […] were exposed to each dose of Compound giving a total of […] assessed (excluding controls). At 96 hpf, larvae were observed and screened using a dissecting stereomicroscope for the presence or absence of: (1) heartbeat (2) circulation; (3) necrosis; and (4) motility (touch response). If all four criteria were satisfied, a larva would be classified as dead. The compound was screened blind.

[2] = system: ddy mice; assay: Serum insulin levels in ddy mice with or without glucose load; assay type: in vivo; settings: 30 minutes
Procedure: 7 week old ddy mice (weight 30-31 g) were divided into 4 groups (groups 1 to 4). Each group had 3-4 mice. All test mouse were fasted for 16 hours before being given the test compounds.
Group 1: Control. un-treated mice (without glucose and G2). Group 2: Oral administration of glucose alone. Group 3: Oral administration of G2 alone. Group 4: Oral administration of G2 with glucose.
Serum insulin levels were measured after 30 minutes (see FIG. 2).
FIG. 3 Effects of G2 (BR1) (100 mg/kg body weight) on serum insulin levels.
Serum insulin concentrations of male ddy mouse after 30 minutes later an oral load with or without D-glucose (2.5 g/kg body weight). Each value represents the mean±SEM (n=3-4). * P<0.05, ** P<0.01.

[3] = Uptake of G2 after oral Gymnema water extract, urine monitoring; assay type: in vivo, human; settings: one volunteer
Procedure: In a preliminary experiment on one volunteer to determine if G2 was readily absorbed from the gastrointestinal tract, a water extract of Gymnema leaves obtained commercially containing 7 mg of G2 was drunk and urine monitored for G2 over 4 hours (0-2 hours and 2-4 hours). An internal standard of 1 mg of castanospermine was added to the two samples of urine prior to applying to a cation exchange resin (IR120 in the H^+ form). After washing the resin with copious water, the bound material was displaced wing excess 2M NH4^+ solution and dried for GC-MS analysis. The samples were derivatised using Pierce Tri-Sil to produce trimethyl-silyl-derivatives of the imino sugars and imino sugar acids. GC-MS was carried out on a Perkin Elmer TurboMass Gold mass spectrometer, with a quadrupole ion filter system, which was run at 250° C. constantly during analysis. The detector mass range was set to 100 to 650 amu. The temperature of the transfer line (GC to MS) was held at 250° C. The GC column was a […] fused-silica column (Varian ‘Factor Four’ VF-5 ms column, 25 m×0.25 mm i.d., 0.25 μm phase thickness). The carrier gas (helium) flow rate was 1 ml min-1. G2 gives a characteristic mass spectrum as the tms derivative and was well resolved allowing quantification.

[4] = system: ob/ob mice; assay: Oral glucose tolerance test after 7 days dosing in ob/ob mice; assay type: in vivo
Procedure: The study started with 42 male ob/ob mice, 10 weeks of age. The mice were fed a normal chow diet during the whole study. After 1 week of acclimatization, mice were matched on basis of body weight, plasma glucose and insulin (after 4 h-fasting) and divided in 3 groups of 10 animals (t=0 days). For the next 6 days, mice received vehicle (control group 1) or 5 mg/kg/day (group 2) or 50 mg/kg/day (group 3) of the compound of formula (G2) (test compound) around 12.00 h by gavage (5 ml/kg mouse). On the 7th day, mice were fasted at 8.00 h and received the last gavage (vehicle for group 1 or 5 mg/kg/day, test compound for group 2 or 50 mg/kg/day test compound for group 3) at 12.00 h. At 13.00 h the mice subsequently received a glucose bolus (2 g/kg mouse, 5 ml/kg mouse) by gavage as start of the oral glucose tolerance test (OGTT). Measurement of blood glucose and plasma collection was at t=0 (just before gavage of glucose) and at t=5, 15, 30, 45, 60 and 120 min after glucose bolus. After the OGTT, mice were sacrificed with CO2 and additional blood was collected in heparin-coated tubes via heart puncture (>100 μl plasma was obtained) and heparin-plasma samples were analysed.
On day 0 mice were randomized on body weight and 4 h fasted plasma glucose and insulin levels (table 3.1.a). Twelve out of 42 mice were excluded, to create more homogenous groups with respect to body weight, plasma glucose and insulin.

[5] = system: ddy mice; assay: Blood glucose levels after maltose loading in ddy mice; assay type: in vivo
Procedure: 7 weeks old ddy mice (weight 30-31 g) were divided into 4 groups (from group 1 to 4). Each group had 5 mouse. All test mouse were fasted for 16 hours for this experiment.
The aim of this experiment was to show if G2 (here coded as BR1) could suppress a hyperglycemia after a meal. Thus, maltose was chosen as the loading sugar as used for Bayer's glucosidase inhibitor Glucobay. Either maltose (2.5 g/kg) or Surose (2.5 g/kg) or starch (1.0 g/kg) can be used but maltose is most popular.
Group 1: Control. Maltose-loading only (without G2 condition). Group 2: oral administration of G2 with maltose (same time). Group 3: intraperitoneal injection of G2 and oral administration of maltose (same time). Group 4: oral administration of G2 30 minutes before maltose-loading. (Glucobay is taken 30 minutes before meals).

[6] = target: T1, rat intestinal isomaltase (Rattus norvegicus, UniProt P23739); assay: Rat intestinal glycosidases: isomaltase; assay type: biochemical; settings: rat intestinal brush border membranes
T1 construct: Enzyme activities were prepared from brush border membranes of rat small intestine; from tissue; host or cells: rat small intestine brush border membranes
Procedure: Enzyme activities were prepared from brush border membranes of rat small intestine using disaccharides as substrates as described by Yasuda et al., 2002.

[7] = target: digestive glucosidases; settings: Watson et al., 2001; cited from earlier work
[8] = 5 mg/kg/day or 50 mg/kg/day by gavage, compared to control (vehicle) group

T1 sequence (P23739 whole entry): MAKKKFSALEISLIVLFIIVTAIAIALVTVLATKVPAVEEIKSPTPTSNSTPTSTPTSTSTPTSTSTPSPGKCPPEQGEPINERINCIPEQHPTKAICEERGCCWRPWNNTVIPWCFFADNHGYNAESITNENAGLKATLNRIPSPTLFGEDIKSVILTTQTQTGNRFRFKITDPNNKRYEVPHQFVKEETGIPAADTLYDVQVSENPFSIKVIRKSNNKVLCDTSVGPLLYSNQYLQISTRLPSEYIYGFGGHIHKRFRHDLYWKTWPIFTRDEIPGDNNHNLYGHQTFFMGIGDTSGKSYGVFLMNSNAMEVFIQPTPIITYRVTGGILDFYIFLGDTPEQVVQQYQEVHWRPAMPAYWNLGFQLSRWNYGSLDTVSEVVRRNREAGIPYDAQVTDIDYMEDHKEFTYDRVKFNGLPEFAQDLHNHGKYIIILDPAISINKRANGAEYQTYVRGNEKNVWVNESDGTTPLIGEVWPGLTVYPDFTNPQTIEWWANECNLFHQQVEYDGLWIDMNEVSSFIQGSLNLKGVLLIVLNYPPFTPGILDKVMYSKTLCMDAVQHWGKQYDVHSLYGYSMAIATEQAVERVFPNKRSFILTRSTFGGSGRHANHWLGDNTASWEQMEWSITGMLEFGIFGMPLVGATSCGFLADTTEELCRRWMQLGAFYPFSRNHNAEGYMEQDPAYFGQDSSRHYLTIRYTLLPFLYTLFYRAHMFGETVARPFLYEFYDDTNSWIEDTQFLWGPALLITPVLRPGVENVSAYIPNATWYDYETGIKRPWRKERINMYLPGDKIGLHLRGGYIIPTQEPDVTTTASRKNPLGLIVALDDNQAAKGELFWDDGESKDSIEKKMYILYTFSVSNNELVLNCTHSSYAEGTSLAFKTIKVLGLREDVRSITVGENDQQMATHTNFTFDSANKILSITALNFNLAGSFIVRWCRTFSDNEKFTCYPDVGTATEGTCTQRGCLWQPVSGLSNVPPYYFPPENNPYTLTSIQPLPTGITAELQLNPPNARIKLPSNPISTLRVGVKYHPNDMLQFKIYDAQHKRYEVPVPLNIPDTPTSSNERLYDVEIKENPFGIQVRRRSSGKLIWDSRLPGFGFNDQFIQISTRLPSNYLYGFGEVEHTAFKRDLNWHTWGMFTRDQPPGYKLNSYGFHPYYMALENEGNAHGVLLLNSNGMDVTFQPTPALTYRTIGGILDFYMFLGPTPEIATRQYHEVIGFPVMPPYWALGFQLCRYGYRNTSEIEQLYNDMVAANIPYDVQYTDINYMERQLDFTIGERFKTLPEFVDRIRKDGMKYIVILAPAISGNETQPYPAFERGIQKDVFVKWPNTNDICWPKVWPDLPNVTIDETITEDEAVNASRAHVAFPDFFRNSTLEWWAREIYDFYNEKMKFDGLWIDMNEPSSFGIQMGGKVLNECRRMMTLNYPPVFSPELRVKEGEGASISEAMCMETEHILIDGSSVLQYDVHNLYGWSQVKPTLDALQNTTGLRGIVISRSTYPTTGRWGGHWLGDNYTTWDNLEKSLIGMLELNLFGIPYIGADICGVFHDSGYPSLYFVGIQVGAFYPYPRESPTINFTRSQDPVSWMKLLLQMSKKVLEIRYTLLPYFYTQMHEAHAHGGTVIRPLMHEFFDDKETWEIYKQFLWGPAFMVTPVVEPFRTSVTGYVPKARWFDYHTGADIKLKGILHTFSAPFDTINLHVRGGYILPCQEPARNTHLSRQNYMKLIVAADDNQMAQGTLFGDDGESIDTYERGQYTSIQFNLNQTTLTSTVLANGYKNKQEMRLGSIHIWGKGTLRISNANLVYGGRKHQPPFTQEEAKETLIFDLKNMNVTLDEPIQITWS

In the case of `O=C(O)[C@H]1NC[C@H](O)[C@@H](O)[C@@H]1O` [Compound G2, 2S,3R,4R,5S-trihydroxypiperidine-2-carboxylic acid], the “acute toxicity to zebrafish larvae” value [1] is reported as “did not cause acute toxicity”, the “serum insulin level, G2 with glucose” value ([2]; 100 mg/kg body weight oral with D-glucose 2.5 g/kg, vs glucose alone) is reported as “much effective than glucose alone” and the “serum insulin level, G2 alone” value ([2]; 100 mg/kg body weight oral, without glucose, vs un-treated) is reported as “did not affect the insulin level”. For the same compound, the “G2 recovered in urine” value ([3]; oral water extract containing 7 mg of G2, within four hours) was ~7 mg, the G2 in urine ([3]; oral water extract of Gymnema leaves containing 7 mg of G2, urine 0-2 hours and 2-4 hours) was “detected” and the “plasma insulin concentrations 120 min after glucose bolus” value ([4]; 5 mg/kg and 50 mg/kg groups vs control) was “significantly increased”. For the same compound, the body weight [4, 8] was “not significantly changed”, the food intake [4, 8] was “not significantly changed” and the “plasma insulin at 15, 30, 45 and 60 min” value ([4]; after glucose bolus 2 g/kg, 5 and 50 mg/kg/day groups vs control) was “No significant changes”. The “plasma insulin levels at 0 min” value ([4]; just before oral glucose load, 5 and 50 mg/kg/day groups vs control, reduction not significant) was “reduced somewhat”, the “absorption into the blood” value ([5]; inferred from p.o. and i.p. curves being almost same) was “absorbed into the blood very quickly” and the “blood glucose level (hyperglycemia) after maltose loading” value ([5]; p.o. with maltose, i.p. with maltose, or p.o. 30 minutes before maltose (2.5 g/kg)) was “suppress hyperglycemia”. For the same compound, the IC50 [6] was > 1000 µM.

For `OC[C@H]1NC[C@H](O)[C@@H](O)[C@@H]1O` [DNJ, 1-deoxynojirimycin, reference compound], the “Ki values, digestive glucosidases” value [7] is listed as “low or sub-μM range”.
